Patent US11787799B2 (priority 2015, dated 2023)
Where “and” joins values, the source holds several entries; their conditions need not be identical. Identical values can stand only once. Like-named read-outs stand apart in the source and are kept apart here.

Columns and labels:
Coxsackievirus B3-H3 = experiment: microbe, parasite or virus in culture; type: cell-based; details: read-out: EC50 CVB3-H3
Poliovirus 1 = experiment: microbe, parasite or virus in culture; type: cell-based; details: read-out: EC50 PV1
Poliovirus 3 = experiment: microbe, parasite or virus in culture; type: cell-based; details: read-out: EC50 PV3
Coxsackievirus B1 = experiment: microbe, parasite or virus in culture; type: cell-based; details: read-out: EC50 CVB1
Coxsackievirus B2 = experiment: microbe, parasite or virus in culture; type: cell-based; details: read-out: EC50 CVB2
Coxsackievirus B4 = experiment: microbe, parasite or virus in culture; type: cell-based; details: read-out: EC50 CVB4
Coxsackievirus B5 = experiment: microbe, parasite or virus in culture; type: cell-based; details: read-out: EC50 CVB5
Enterovirus 71 = experiment: microbe, parasite or virus in culture; type: cell-based; details: read-out: EC50 EV71
Coxsackievirus A9 = experiment: microbe, parasite or virus in culture; type: cell-based; details: read-out: EC50 COX A9
Echovirus 6 = experiment: microbe, parasite or virus in culture; type: cell-based; details: read-out: EC50 ECHO06
Echovirus 7 = experiment: microbe, parasite or virus in culture; type: cell-based; details: read-out: EC50 ECHO07
Echovirus 9 = experiment: microbe, parasite or virus in culture; type: cell-based; details: read-out: EC50 ECHO09
Echovirus 11 = experiment: microbe, parasite or virus in culture; type: cell-based; details: read-out: EC50 ECHO11
Echovirus 25 = experiment: microbe, parasite or virus in culture; type: cell-based; details: read-out: EC50 ECHO25
Echovirus 30 = experiment: microbe, parasite or virus in culture; type: cell-based; details: read-out: EC50 ECHO30
Enterovirus D68/Fermon = experiment: Antiviral assay, Enterovirus D68 strain Fermon in RD cells; type: cell-based
[1] = tested on: Enterovirus D68/US/Mo/14-18949; experiment: Antiviral assay, Enterovirus D68 strain US/Mo/14-18949 in RD cells; type: cell-based
[2] = tested on: Enterovirus D68/US/KY/14-18953; experiment: Antiviral assay, Enterovirus D68 strain US/KY/14-18953 in RD cells; type: cell-based
Measles = experiment: microbe, parasite or virus in culture; type: cell-based; details: read-out: EC50 Measles
SARS Coronavirus = type: cell-based
Influenza A H1N1 = experiment: microbe, parasite or virus in culture; type: cell-based; details: read-out: EC50 Influenza A H1N1
[3] = tested on: RSV (resp syncitial virus); experiment: microbe, parasite or virus in culture; type: cell-based; details: read-out: EC50 RSV
Japanese Encephalitis = type: cell-based
Powassan = type: cell-based, Powassan virus
Yellow Fever Virus = experiment: microbe, parasite or virus in culture; type: cell-based; details: read-out: EC50 Yellow Fever Virus
Punta Toro virus = experiment: microbe, parasite or virus in culture; type: cell-based; details: read-out: EC50 Punta Toro virus
Rift Valley virus = experiment: organism not typed; type: cell-based; details: read-out: EC50 Rift Valley virus
Venezuelan Encephalitis = type: cell-based, Venezuelan encephalitis virus
Chikungunya = type: cell-based, chikungunya virus
Rabies = type: cell-based, rabies virus
BHK = details: read-out: CC50 (Powassan test)
Vero = details: read-out: CC50 (Yellow Fever Virus test)
BHK-21 = details: read-out: CC50 (Rabies test)
[4] = read-out: CC50 (Rift Valley virus test), with Rift Valley virus MP-12 test
[5] = read-out: CC50 (SARS Coronavirus test), with SARS Coronavirus Urbani test

Row | SMILES | EC50 (Coxsackievirus B3-H3) [µM] | EC50 (Poliovirus 1) [µM] | EC50 (Poliovirus 3) [µM] | EC50 (Coxsackievirus B1) [µM] | EC50 (Coxsackievirus B2) [µM] | EC50 (Coxsackievirus B4) [µM] | EC50 (Coxsackievirus B5) [µM] | EC50 (Enterovirus 71) [µM] | EC50 (Coxsackievirus A9) [µM] | EC50 (Echovirus 6) [µM] | EC50 (Echovirus 7) [µM] | EC50 (Echovirus 9) [µM] | EC50 (Echovirus 25) [µM] | EC50 (Echovirus 30) [µM] | EC50 (Enterovirus D68/Fermon) | EC50 [1] [µM] | EC50 [2] [µM] | EC50 (Measles) [µM] | EC50 (SARS Coronavirus) [µM] | EC50 (Influenza A H1N1) [µM] | other results
1 | CC(C)n1ncc2c(C(=O)Nc3ccc(F)cc3F)cc(-c3cccs3)nc21 [JX-008] | 1.4 ± 0.5 | > 25 | > 25 | 2.3 | 2.8 ± 0.4 | 2.3 | 2.3 | 1.6 ± 0.4 | 2.3 ± 0.8 | 1.9 ± 0.7 | 2.4 | 1.5 ± 1 | 1.5 | 0.8 | 0.33 ± 0.06 µM | 0.28 ± 0.08 | 0.4 ± 0.17 | 34 | 68 | 70 | EC50 (Echovirus 11): 1.4 ± 0.4 µM; EC50 [3]: > 100 µM; EC50 (Japanese Encephalitis): > 0.44 µM; EC50 (Powassan): > 38 µM; EC50 (Yellow Fever Virus): 45 µM; EC50 (Punta Toro virus): 23 µM; EC50 (Rift Valley virus): > 77 µM; EC50 (Venezuelan Encephalitis): > 0.48 µM; EC50 (Chikungunya): > 0.66 µM; EC50 (Rabies): > 100 µM; CC50 (HeLa-RW cells): > 200 µM; CC50 (LLC cells): > 200 µM; CC50 (RD cells): 100 µM; CC50 (Vero 76; [4]): 77 µM; CC50 (Vero 76; [5]): > 100 µM; CC50 (MDCK): > 100 µM; CC50 (MA-104): > 100 µM; CC50 (BHK): 38 µM; CC50 (Vero): 50 µM; CC50 (BHK-21): > 100 µM
2 | CC(C)n1ncc2c(C(=O)Nc3ccc(F)cc3)cc(-c3cccs3)nc21 [JX-017] | 0.7 ± 0.2 | > 25 | > 25 | 0.9 ± 0.3 | 1 ± 0.3 | 0.8 | 1 ± 0.1 | 0.9 ± 0.3 | 0.9 ± 0.5 | 1 ± 0.4 | 1.3 ± 0.2 | 0.6 | 1.2 | 0.5 | 0.33 ± 0.06 µM | 0.35 ± 0.06 | 0.5 ± 0.17 | 8.9 | > 10 | > 100 | EC50 [3]: 69 µM; EC50 (Japanese Encephalitis): > 0.43 µM; EC50 (Powassan): 32 µM; EC50 (Yellow Fever Virus): > 9.9 µM; EC50 (Punta Toro virus): 12 µM; EC50 (Rift Valley virus): > 52 µM; EC50 (Venezuelan Encephalitis): 0.32 µM; EC50 (Chikungunya): 0.29 µM; EC50 (Rabies): > 100 µM; CC50 (HeLa-RW cells): > 200 µM; CC50 (LLC cells): > 200 µM; CC50 (RD cells): > 200 µM; CC50 (Vero 76; [4]): 52 µM; CC50 (Vero 76; [5]): 10 µM; CC50 (MDCK): > 100 µM; CC50 (MA-104): > 100 µM; CC50 (BHK): 37 µM; CC50 (Vero): 9.9 µM; CC50 (BHK-21): > 100 µM
3 | CC(C)n1ncc2c(C(=O)Nc3ccccc3F)cc(-c3cccs3)nc21 [JX-001] | 1.4 ± 0.6 | 7 | 7 | 2.4 ± 0.2 | 2.8 ± 0.4 | 2.3 | 2.3 | 1.8 ± 0.5 | 2.6 ± 0.9 | 2.3 ± 0.9 | 2.4 | 2.1 ± 1.2 | 3 | 1.2 | 0.35 ± 0.05 µM | 0.33 ± 0.05 | 0.5 ± 0.17 | > 4 | 3.2 | > 100 | EC50 (Echovirus 11): 1.5 ± 0.4 µM; EC50 [3]: 3.4 µM; EC50 (Japanese Encephalitis): > 0.014 µM; EC50 (Powassan): > 33 µM; EC50 (Yellow Fever Virus): > 4.8 µM; EC50 (Punta Toro virus): > 39 µM; EC50 (Rift Valley virus): > 50 µM; EC50 (Venezuelan Encephalitis): > 0.98 µM; EC50 (Chikungunya): 0.31 µM; EC50 (Rabies): > 100 µM; CC50 (HeLa-RW cells): 12.5 µM; CC50 (RD cells): 200 µM; CC50 (Vero 76; [4]): 50 µM; CC50 (Vero 76; [5]): 3.3 µM; CC50 (MDCK): > 100 µM; CC50 (MA-104): 4.7 µM; CC50 (BHK): > 33 µM; CC50 (Vero): 4.8 µM; CC50 (BHK-21): > 100 µM
4 | CC(C)n1ncc2c(C(=O)Nc3cccc(S(N)(=O)=O)c3)cc(-c3cccs3)nc21 [JX-025] | 0.3 | 5 | 5 | 1.2 | 1.2 | 1.1 ± 0.2 | 1.2 | 1.3 ± 0.1 | 2.1 ± 0.7 | 1.1 ± 0.3 | 2.1 ± 0.6 | 1.2 | 1.1 | 0.6 | 0.1 µM and 0.15 µM | 0.06 ± 0.02 | 0.15 | 7.1 | > 7.2 | > 100 | EC50 [3]: > 100 µM; EC50 (Japanese Encephalitis): 0.31 µM; EC50 (Powassan): > 8.9 µM; EC50 (Yellow Fever Virus): > 4.8 µM; EC50 (Punta Toro virus): 38 µM; EC50 (Rift Valley virus): > 100 µM; EC50 (Venezuelan Encephalitis): > 0.88 µM; EC50 (Chikungunya): 0.3 µM; EC50 (Rabies): > 12.2 µM; CC50 (HeLa-RW cells): 50 µM; CC50 (LLC cells): 25 µM; CC50 (RD cells): 50 µM; CC50 (Vero 76; [4]): > 100 µM; CC50 (Vero 76; [5]): 7.2 µM; CC50 (MDCK): > 100 µM; CC50 (MA-104): > 100 µM; CC50 (BHK): 8.9 µM; CC50 (Vero): 4.8 µM; CC50 (BHK-21): 12.2 µM
